Legend:
Assay in all cases: viability relative to DMSO control (fraction); higher = less drug effect (more viable cells)
Details in all cases: 48 h
[1] = test system: primary AML patient cells (S025)
How it was run: (§1)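 Viability was measured as CellTiter-Glo luminescence relative to the median of 16 inner DMSO wells. Primary mononuclear tumour cells, fresh or cryopreserved, were Ficoll-isolated from blood or bone marrow or taken from processed lymph node. They were seeded at 4 × 10^4 cells per well into 384-well plates holding pre-plated compounds at five concentrations, one well each, and kept in RPMI-1640 with penicillin/streptomycin, L-glutamine and human serum at 37 °C and 5% CO2 for 48 h.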

[2] = test system: primary AML patient cells (S017)
How it was run: as §1

[3] = test system: primary ALL patient cells (S048)
How it was run: as §1

[4] = test system: primary AML patient cells (S009)
How it was run: as §1

[5] = test system: primary MCL patient cells (S068)
How it was run: as §1

[6] = test system: primary AML patient cells (S006)
How it was run: as §1

[7] = test system: primary AML patient cells (S012)
How it was run: as §1

[8] = test system: primary MCL patient cells (S063)
How it was run: as §1

[9] = test system: primary AML patient cells (S002)
How it was run: as §1

[10] = test system: primary AML patient cells (S081)
How it was run: as §1

[11] = test system: primary AML patient cells (S079)
How it was run: as §1

[12] = test system: primary CLL patient cells (S043)
How it was run: as §1

[13] = test system: primary MCL patient cells (S053)
How it was run: as §1

[14] = test system: primary BL patient cells (S005)
How it was run: as §1

[15] = test system: primary AML patient cells (S021)
How it was run: as §1

[16] = test system: primary AML patient cells (S056)
How it was run: as §1

[17] = test system: primary T-PLL patient cells (S008)
How it was run: as §1

[18] = test system: primary AML patient cells (S072)
How it was run: as §1

[19] = test system: primary FL patient cells (S022)
How it was run: as §1

Cc1nc(Nc2ncc(C(=O)Nc3c(C)cccc3Cl)s2)cc(N2CCN(CCO)CC2)n1 [Dasatinib]
viability ([1]; 0.0016 µM): 0.961
viability ([1]; 0.008 µM): 1.02
viability ([1]; 0.04 µM): 0.978
viability ([1]; 0.2 µM): 0.965
viability ([1]; 1 µM): 1.14
viability ([2]; 0.0016 µM): 0.997
viability ([2]; 0.008 µM): 0.859
viability ([2]; 0.04 µM): 0.654
viability ([2]; 0.2 µM): 0.689
viability ([2]; 1 µM): 0.711
viability ([3]; 0.0016 µM): 1.05
viability ([3]; 0.008 µM): 0.937
viability ([3]; 0.04 µM): 0.911
viability ([3]; 0.2 µM): 0.864
viability ([3]; 1 µM): 0.926
viability ([4]; 0.0016 µM): 0.987
viability ([4]; 0.008 µM): 0.965
viability ([4]; 0.04 µM): 0.993
viability ([4]; 0.2 µM): 0.972
viability ([4]; 1 µM): 1
viability ([5]; 0.0016 µM): 0.912
viability ([5]; 0.008 µM): 0.671
viability ([5]; 0.04 µM): 0.4
viability ([5]; 0.2 µM): 0.341
viability ([5]; 1 µM): 0.357
viability ([6]; 0.0016 µM): 0.961
viability ([6]; 0.008 µM): 0.912
viability ([6]; 0.04 µM): 0.88
viability ([6]; 0.2 µM): 0.808
viability ([7]; 0.0016 µM): 0.993
viability ([7]; 0.008 µM): 0.917
viability ([7]; 0.04 µM): 1.01
viability ([7]; 0.2 µM): 1
viability ([7]; 1 µM): 1.01
viability ([8]; 0.0016 µM): 1
viability ([8]; 0.008 µM): 0.653
viability ([8]; 0.04 µM): 0.245
viability ([8]; 0.2 µM): 0.151
viability ([8]; 1 µM): 0.118
viability ([9]; 0.0016 µM): 0.979
viability ([9]; 0.008 µM): 1.04
viability ([9]; 0.04 µM): 0.799
viability ([9]; 0.2 µM): 0.764
viability ([9]; 1 µM): 1.04
viability ([10]; 0.0016 µM): 1.14
viability ([10]; 0.008 µM): 1.01
viability ([10]; 0.04 µM): 0.693
viability ([10]; 0.2 µM): 0.54
viability ([10]; 1 µM): 0.764
viability ([11]; 0.0016 µM): 0.973
viability ([11]; 0.008 µM): 0.911
viability ([11]; 0.04 µM): 0.863
viability ([11]; 0.2 µM): 0.812
viability ([11]; 1 µM): 1.04
viability ([12]; 0.0016 µM): 1.31
viability ([12]; 0.008 µM): 1.2
viability ([12]; 0.04 µM): 0.67
viability ([12]; 0.2 µM): 0.595
viability ([12]; 1 µM): 0.547
viability ([13]; 0.0016 µM): 1.14
viability ([13]; 0.008 µM): 0.882
viability ([13]; 0.04 µM): 0.494
viability ([13]; 0.2 µM): 0.342
viability ([13]; 1 µM): 0.347
viability ([14]; 0.0016 µM): 0.917
viability ([14]; 0.008 µM): 0.807
viability ([14]; 0.04 µM): 0.788
viability ([14]; 0.2 µM): 0.7
viability ([14]; 1 µM): 0.697
viability ([15]; 0.0016 µM): 0.964
viability ([15]; 0.008 µM): 0.799
viability ([15]; 0.04 µM): 0.73
viability ([15]; 0.2 µM): 0.615
viability ([15]; 1 µM): 0.638
viability ([16]; 0.0016 µM): 0.859
viability ([16]; 0.008 µM): 1.03
viability ([16]; 0.04 µM): 0.748
viability ([16]; 0.2 µM): 0.63
viability ([16]; 1 µM): 0.572
viability ([17]; 0.0016 µM): 1
viability ([17]; 0.008 µM): 0.974
viability ([17]; 0.04 µM): 0.968
viability ([17]; 0.2 µM): 0.973
viability ([17]; 1 µM): 0.996
viability ([18]; 0.0016 µM): 0.945
viability ([18]; 0.008 µM): 0.851
viability ([18]; 0.04 µM): 0.712
viability ([18]; 0.2 µM): 0.623
viability ([18]; 1 µM): 0.704
viability ([19]; 0.0016 µM): 0.931
viability ([19]; 0.008 µM): 0.857
viability ([19]; 0.04 µM): 0.841
viability ([19]; 0.2 µM): 0.773
viability ([19]; 1 µM): 0.698

Cc1cc(Nc2ncc(Cl)c(Nc3ccccc3S(=O)(=O)C(C)C)n2)c(OC(C)C)cc1C1CCNCC1 [Ceritinib]
viability ([1]; 0.024 µM): 0.985
viability ([1]; 0.12 µM): 0.874
viability ([1]; 0.6 µM): 0.838
viability ([1]; 3 µM): 0.508
viability ([1]; 15 µM): 0.0191
viability ([2]; 0.024 µM): 0.958
viability ([2]; 0.12 µM): 0.963
viability ([2]; 0.6 µM): 0.995
viability ([2]; 3 µM): 0.773
viability ([2]; 15 µM): 0.0225
viability ([3]; 0.024 µM): 0.855
viability ([3]; 0.12 µM): 0.83
viability ([3]; 0.6 µM): 0.634
viability ([3]; 3 µM): 0.505
viability ([3]; 15 µM): 0.0153
viability ([4]; 0.024 µM): 0.937
viability ([4]; 0.12 µM): 0.903
viability ([4]; 0.6 µM): 0.823
viability ([4]; 3 µM): 0.754
viability ([4]; 15 µM): 0.0293
viability ([5]; 0.024 µM): 0.94
viability ([5]; 0.12 µM): 0.84
viability ([5]; 0.6 µM): 0.88
viability ([5]; 3 µM): 1.02
viability ([5]; 15 µM): 0.0227
viability ([6]; 0.024 µM): 0.938
viability ([6]; 0.12 µM): 0.924
viability ([6]; 0.6 µM): 0.773
viability ([6]; 3 µM): 0.53
viability ([6]; 15 µM): 0.0233
viability ([7]; 0.024 µM): 1.05
viability ([7]; 0.12 µM): 1.03
viability ([7]; 0.6 µM): 1.06
viability ([7]; 3 µM): 1.01
viability ([7]; 15 µM): 0.0296
viability ([8]; 0.024 µM): 0.967
viability ([8]; 0.12 µM): 0.946
viability ([8]; 0.6 µM): 0.957
viability ([8]; 3 µM): 0.892
viability ([8]; 15 µM): 0.0187
viability ([9]; 0.024 µM): 1.12
viability ([9]; 0.12 µM): 0.926
viability ([9]; 0.6 µM): 0.861
viability ([9]; 3 µM): 0.616
viability ([9]; 15 µM): 0.0299
viability ([10]; 0.024 µM): 0.963
viability ([10]; 0.12 µM): 0.957
viability ([10]; 0.6 µM): 0.967
viability ([10]; 3 µM): 0.982
viability ([10]; 15 µM): 0.0181
viability ([11]; 0.024 µM): 0.964
viability ([11]; 0.12 µM): 0.933
viability ([11]; 0.6 µM): 0.844
viability ([11]; 3 µM): 0.738
viability ([11]; 15 µM): 0.0169
viability ([12]; 0.024 µM): 1.05
viability ([12]; 0.12 µM): 0.943
viability ([12]; 0.6 µM): 0.928
viability ([12]; 3 µM): 0.684
viability ([12]; 15 µM): 0.0198
viability ([13]; 0.024 µM): 0.986
viability ([13]; 0.12 µM): 1.01
viability ([13]; 0.6 µM): 1
viability ([13]; 3 µM): 0.832
viability ([13]; 15 µM): 0.0213
viability ([14]; 0.024 µM): 1.05
viability ([14]; 0.12 µM): 0.992
viability ([14]; 0.6 µM): 0.944
viability ([14]; 3 µM): 0.669
viability ([14]; 15 µM): 0.0199
viability ([15]; 0.024 µM): 1
viability ([15]; 0.12 µM): 0.934
viability ([15]; 0.6 µM): 0.833
viability ([15]; 3 µM): 0.572
viability ([15]; 15 µM): 0.03
viability ([16]; 0.024 µM): 0.954
viability ([16]; 0.12 µM): 1.41
viability ([16]; 0.6 µM): 0.654
viability ([16]; 3 µM): 0.375
viability ([16]; 15 µM): 0.0154
viability ([17]; 0.024 µM): 0.991
viability ([17]; 0.12 µM): 1.04
viability ([17]; 0.6 µM): 0.939
viability ([17]; 3 µM): 0.86
viability ([17]; 15 µM): 0.0194
viability ([18]; 0.024 µM): 0.954
viability ([18]; 0.12 µM): 0.939
viability ([18]; 0.6 µM): 0.79
viability ([18]; 3 µM): 0.582
viability ([18]; 15 µM): 0.0168
viability ([19]; 0.024 µM): 1.01
viability ([19]; 0.12 µM): 0.948
viability ([19]; 0.6 µM): 0.846
viability ([19]; 3 µM): 0.555
viability ([19]; 15 µM): 0.0165

Reference: the supplement of paper PMC10733146
